What all share (type): biochemical
For one experiment, the target named is T1, Human Calpain 1/NS1 (Homo sapiens, UniProt P07384).
T1 sequence (P07384 1-714): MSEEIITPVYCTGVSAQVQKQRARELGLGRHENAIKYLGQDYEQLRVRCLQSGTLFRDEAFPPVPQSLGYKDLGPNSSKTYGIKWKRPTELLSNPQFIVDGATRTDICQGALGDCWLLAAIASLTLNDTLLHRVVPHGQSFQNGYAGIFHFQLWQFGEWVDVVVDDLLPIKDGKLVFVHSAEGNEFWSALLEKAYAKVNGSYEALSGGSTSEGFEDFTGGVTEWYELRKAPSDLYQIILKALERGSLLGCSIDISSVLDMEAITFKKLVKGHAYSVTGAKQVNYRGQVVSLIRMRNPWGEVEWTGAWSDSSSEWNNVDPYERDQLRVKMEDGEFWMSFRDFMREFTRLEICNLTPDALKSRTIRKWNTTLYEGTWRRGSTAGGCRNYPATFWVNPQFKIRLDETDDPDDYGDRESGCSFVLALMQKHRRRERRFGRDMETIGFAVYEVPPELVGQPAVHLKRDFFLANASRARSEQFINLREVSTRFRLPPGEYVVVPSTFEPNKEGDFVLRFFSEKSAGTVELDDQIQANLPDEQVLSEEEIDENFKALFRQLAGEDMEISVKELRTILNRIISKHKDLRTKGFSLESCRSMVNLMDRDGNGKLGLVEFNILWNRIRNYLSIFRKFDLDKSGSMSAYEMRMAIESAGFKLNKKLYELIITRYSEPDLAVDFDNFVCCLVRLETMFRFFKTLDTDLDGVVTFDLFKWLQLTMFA
T1 sequence (P04632 1-268 partner): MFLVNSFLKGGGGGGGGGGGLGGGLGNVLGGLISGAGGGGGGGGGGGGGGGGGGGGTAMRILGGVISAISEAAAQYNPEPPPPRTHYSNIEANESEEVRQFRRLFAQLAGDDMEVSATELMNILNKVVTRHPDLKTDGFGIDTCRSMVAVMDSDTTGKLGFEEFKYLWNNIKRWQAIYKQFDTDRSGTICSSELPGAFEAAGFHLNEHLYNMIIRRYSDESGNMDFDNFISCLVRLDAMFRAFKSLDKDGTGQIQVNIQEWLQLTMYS
The experiment can be described thus: Calpain inhibition continuous fluorescence (FRET) assay, Human Calpain 1/NS1. As to conditions: Column A; read-out: Human Calpain 1/NS1 IC50. The gist of the method: (§1)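 Buffer 50 mM Tris pH 7.5/100 mM NaCl/1 mM DTT; enzyme + cpd preinc 25C; start w/ FRET substrate + CaCl2; kinetic 490/520 nm, 10 min; slopes 1-5 min; 4-PL IC50.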

A further experiment deals with T2, Human Calpain 9/NS1 (Homo sapiens, UniProt O14815).
T2 sequence (O14815 1-690): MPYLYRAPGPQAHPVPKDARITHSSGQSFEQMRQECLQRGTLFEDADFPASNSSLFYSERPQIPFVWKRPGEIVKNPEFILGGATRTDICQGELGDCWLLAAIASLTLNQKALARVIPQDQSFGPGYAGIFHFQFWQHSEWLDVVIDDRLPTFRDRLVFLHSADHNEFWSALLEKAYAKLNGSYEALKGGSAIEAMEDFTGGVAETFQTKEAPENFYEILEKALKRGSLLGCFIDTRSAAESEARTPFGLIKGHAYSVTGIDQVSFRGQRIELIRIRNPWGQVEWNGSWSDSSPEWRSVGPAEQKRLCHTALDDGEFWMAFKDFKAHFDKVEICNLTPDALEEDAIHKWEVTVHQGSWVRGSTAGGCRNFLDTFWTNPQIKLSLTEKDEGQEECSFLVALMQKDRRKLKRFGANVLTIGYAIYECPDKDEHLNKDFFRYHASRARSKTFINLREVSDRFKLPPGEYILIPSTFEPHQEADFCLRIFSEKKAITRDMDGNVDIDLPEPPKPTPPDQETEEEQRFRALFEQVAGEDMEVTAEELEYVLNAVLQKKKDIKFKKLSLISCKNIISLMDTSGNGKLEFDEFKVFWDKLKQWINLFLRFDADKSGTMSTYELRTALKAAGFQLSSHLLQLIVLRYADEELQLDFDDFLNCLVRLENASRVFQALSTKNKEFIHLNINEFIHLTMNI
T2 sequence (P04632 1-268 partner): T1 sequence (P04632 1-268 partner)
The experiment can be described thus: Calpain inhibition continuous fluorescence (FRET) assay, Human Calpain 9/NS1. As to conditions: Column C; read-out: Human Calpain 9/NS1 IC50. Put shortly:
as §1

The target in a further experiment is T3, Human Calpain 2/NS1 (Homo sapiens, UniProt P17655).
T3 sequence (P17655 1-700): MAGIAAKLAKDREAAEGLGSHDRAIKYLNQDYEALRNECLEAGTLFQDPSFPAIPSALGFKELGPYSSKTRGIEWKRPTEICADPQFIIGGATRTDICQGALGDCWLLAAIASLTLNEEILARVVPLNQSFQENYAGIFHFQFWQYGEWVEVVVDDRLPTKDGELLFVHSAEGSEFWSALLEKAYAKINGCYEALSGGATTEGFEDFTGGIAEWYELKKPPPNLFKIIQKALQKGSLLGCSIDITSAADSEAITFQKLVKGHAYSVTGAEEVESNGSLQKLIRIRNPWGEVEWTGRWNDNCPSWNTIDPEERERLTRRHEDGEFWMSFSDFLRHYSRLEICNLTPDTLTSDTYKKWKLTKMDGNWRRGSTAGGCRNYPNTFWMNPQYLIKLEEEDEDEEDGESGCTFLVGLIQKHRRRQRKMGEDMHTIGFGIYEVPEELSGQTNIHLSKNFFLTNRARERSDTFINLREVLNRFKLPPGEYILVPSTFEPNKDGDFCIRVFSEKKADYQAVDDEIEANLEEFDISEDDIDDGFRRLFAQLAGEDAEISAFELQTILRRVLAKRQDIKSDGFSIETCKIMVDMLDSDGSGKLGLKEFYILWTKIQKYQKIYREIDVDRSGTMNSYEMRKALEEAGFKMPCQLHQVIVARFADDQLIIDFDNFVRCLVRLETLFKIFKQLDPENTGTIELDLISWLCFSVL
T3 sequence (P04632 1-268 partner): T1 sequence (P04632 1-268 partner)
Put plainly: Calpain inhibition continuous fluorescence (FRET) assay, Human Calpain 2/NS1. As to conditions: Column B; read-out: Human Calpain 2/NS1 IC50. Put shortly:
as §1

Each structure is given as a SMILES string.

Here are results for 16 compounds from patent US11339130B1 (Blade Therapeutics, Inc., priority 2016, dated 2022).

For the compound `Cc1noc(-c2ccccc2)c1C(=O)N[C@@H](Cc1ccccc1)C(=O)C(=O)NCc1ccc2c(c1)OCO2` [Compound 225, (S)—N-(4-((benzo[d][1,3]dioxol-5-ylmethyl)amino)-3,4-dioxo-1-phenylbutan-2-yl)-3-methyl-5-phenylisoxazole-4-carboxamide], the IC50 was less than 3 µM on Human Calpain 1/NS1, more than 10 µM on Human Calpain 9/NS1 and more than 10 µM on Human Calpain 2/NS1.

With `Cc1cc(-n2nc(C(=O)N[C@@H](Cc3ccccc3)C(=O)C(N)=O)cc2C)nc(C)n1` [Compound 232, (S)—N-(4-amino-3,4-dioxo-1-phenylbutan-2-yl)-1-(2,6-dimethylpyrimidin-4-yl)-5-methyl-1H-pyrazole-3-carboxamide], the IC50 on Human Calpain 1/NS1 was more than 10 µM; at Human Calpain 9/NS1, 3 to 10 µM; at Human Calpain 2/NS1, more than 10 µM.

For the compound `Cc1cc(C(=O)N[C@@H](Cc2ccccc2)C(=O)C(N)=O)n(-c2ccc(-c3ccccc3)nn2)n1` [Compound 233, (S)—N-(4-amino-3,4-dioxo-1-phenylbutan-2-yl)-3-methyl-1-(6-phenylpyridazin-3-yl)-1H-pyrazole-5-carboxamide], the IC50 is less than 3 µM at Human Calpain 1/NS1, 3 to 10 µM on Human Calpain 9/NS1 and less than 3 µM on Human Calpain 2/NS1.

As to `Cc1cc(C(F)(F)F)cc(-n2nc(C)cc2C(=O)N[C@@H](Cc2ccccc2)C(=O)C(N)=O)n1` [Compound 234, (S)—N-(4-amino-3,4-dioxo-1-phenylbutan-2-yl)-3-methyl-1-(6-methyl-4-(trifluoromethyl)pyridin-2-yl)-1H-pyrazole-5-carboxamide], the IC50 at Human Calpain 1/NS1, at Human Calpain 9/NS1 and at Human Calpain 2/NS1 was less than 3 µM in each case.

As to `Cc1cc(-n2nc(C)cc2C(=O)N[C@@H](Cc2ccccc2)C(=O)C(N)=O)nc(C)n1` [Compound 235, (S)—N-(4-amino-3,4-dioxo-1-phenylbutan-2-yl)-1-(2,6-dimethylpyrimidin-4-yl)-3-methyl-1H-pyrazole-5-carboxamide], the IC50 at Human Calpain 1/NS1, on Human Calpain 9/NS1 and at Human Calpain 2/NS1 was less than 3 µM each time.

Turning to `Cn1ncc(-c2ccccc2)c1C(=O)N[C@@H](Cc1ccccc1)C(=O)C(N)=O` [Compound 240], the IC50 at Human Calpain 1/NS1, at Human Calpain 9/NS1 and on Human Calpain 2/NS1 was less than 3 µM throughout.

Take `Cn1cc(-c2ccccc2)c(C(=O)N[C@@H](Cc2ccccc2)C(=O)C(N)=O)n1` [Compound 241, (S)—N-(4-amino-3,4-dioxo-1-phenylbutan-2-yl)-1-methyl-4-phenyl-1H-pyrazole-3-carboxamide]: the IC50 on Human Calpain 1/NS1, at Human Calpain 9/NS1 and at Human Calpain 2/NS1 was less than 3 µM in each case.

Take `Cc1noc(-c2ccccc2)c1C(=O)N[C@@H](Cc1ccccc1)C(=O)C(=O)NCc1ccc(OC(F)(F)F)cc1` [Compound 247, (S)—N-(3,4-dioxo-1-phenyl-4-((4-(trifluoromethoxy)benzyl)amino)butan-2-yl)-3-methyl-5-phenylisoxazole-4-carboxamide]: the IC50 on Human Calpain 1/NS1, at Human Calpain 9/NS1 and at Human Calpain 2/NS1 was 3 to 10 µM each time.

As to `Cc1cc(C(=O)N[C@@H](Cc2ccccc2)C(=O)C(N)=O)nn1-c1nc2ccccc2o1` [Compound 256, (S)—N-(4-amino-3,4-dioxo-1-phenylbutan-2-yl)-1-(benzo[d]oxazol-2-yl)-5-methyl-1H-pyrazole-3-carboxamide], the IC50 on Human Calpain 1/NS1 is more than 10 µM; on Human Calpain 9/NS1 it was less than 3 µM; on Human Calpain 2/NS1, more than 10 µM.

For the compound `NC(=O)C(=O)[C@H](Cc1ccccc1)NC(=O)c1c(F)cnn1-c1ccccc1` [Compound 258, (S)—N-(4-amino-3,4-dioxo-1-phenylbutan-2-yl)-4-fluoro-1-phenyl-1H-pyrazole-5-carboxamide], the IC50 at Human Calpain 1/NS1, at Human Calpain 9/NS1 and at Human Calpain 2/NS1 was less than 3 µM in each case.

Turning to `Cn1nnc(C(=O)N[C@@H](Cc2ccccc2)C(=O)C(N)=O)c1-c1ccccc1` [Compound 260, (S)—N-(4-amino-3,4-dioxo-1-phenylbutan-2-yl)-1-methyl-5-phenyl-1H-1,2,3-triazole-4-carboxamide], the IC50 on Human Calpain 1/NS1, at Human Calpain 9/NS1 and on Human Calpain 2/NS1 was less than 3 µM each time.

With `Cn1nnc(-c2ccccc2)c1C(=O)N[C@@H](Cc1ccccc1)C(=O)C(N)=O` [Compound 261, (S)—N-(4-amino-3,4-dioxo-1-phenylbutan-2-yl)-1-methyl-4-phenyl-1H-1,2,3-triazole-5-carboxamide], the IC50 on Human Calpain 1/NS1, at Human Calpain 9/NS1 and on Human Calpain 2/NS1 was less than 3 µM in each case.

Take `NC(=O)C(=O)[C@H](Cc1ccccc1)NC(=O)c1nn[nH]c1-c1ccccc1` [Compound 262, (S)—N-(4-amino-3,4-dioxo-1-phenylbutan-2-yl)-5-phenyl-1H-1,2,3-triazole-4-carboxamide]: the IC50 at Human Calpain 1/NS1 was 3 to 10 µM; at Human Calpain 9/NS1, less than 3 µM; at Human Calpain 2/NS1 it was 3 to 10 µM.

With `NC(=O)C(=O)[C@H](Cc1ccccc1)NC(=O)c1cnnn1-c1ccccc1` [Compound 263, (S)—N-(4-amino-3,4-dioxo-1-phenylbutan-2-yl)-1-phenyl-1H-1,2,3-triazole-5-carboxamide], the IC50 at Human Calpain 1/NS1, at Human Calpain 9/NS1 and at Human Calpain 2/NS1 was less than 3 µM throughout.

As to `Cc1cc(C(=O)N[C@@H](Cc2ccccc2)C(=O)C(N)=O)nn1-c1nc2ccccc2[nH]1` [Compound 264, (S)—N-(4-amino-3,4-dioxo-1-phenylbutan-2-yl)-1-(1H-benzo[d]imidazol-2-yl)-5-methyl-1H-pyrazole-3-carboxamide], the IC50 on Human Calpain 1/NS1 was 3 to 10 µM; at Human Calpain 9/NS1 it was more than 10 µM; on Human Calpain 2/NS1, 3 to 10 µM.

With `Cn1cnc(C(=O)N[C@@H](Cc2ccccc2)C(=O)C(N)=O)c1-c1ccccc1` [Compound 269, (S)—N-(4-amino-3,4-dioxo-1-phenylbutan-2-yl)-1-methyl-5-phenyl-1H-imidazole-4-carboxamide], the IC50 is 3 to 10 µM on Human Calpain 1/NS1, less than 3 µM on Human Calpain 9/NS1 and 3 to 10 µM on Human Calpain 2/NS1.
